# From patent US8278294B2, “Substituted isoquinoline and isoquinolinone derivatives as inhibitors of Rho-kinase” (Sanofi, priority 2006, dated 2012)
# Target: T1, human recombinant ROCK II (Homo sapiens, UniProt O75116)
# T1 construct: recombinant human ROCK-II residues 11-552; His6 (N); purchased Upstate Ltd., Dundee, UK
# Assay: Determination of Rho kinase inhibition (Caliper peptide phosphorylation assay)
# Format: biochemical
# Details: negative decadal logarithm of the IC50; ROCK II residues 11-552, fluorescein peptide substrate, ATP, 60 min at 32° C.; salt or free base as obtained in the examples
# Experimental: Determination of Rho Kinase Inhibition
# To measure Rho-kinase inhibition, IC50 values were determined according to the following protocol:
# Active human recombinant ROCK II (N-terminal His6-tagged recombinant human ROCK-II residues 11-552) was purchased from Upstate Ltd., Dundee, UK. The peptide substrate, Fluorescein-AKRRRLSSLRA-COOH, was obtained from JPT Peptide Technologies, Berlin, Germany. Adenosine-5′-triphosphate (ATP), bovine serum albumine (BSA), dimethylsulphoxide (DMSO), 4-(2-Hydroxyethyl)piperazine-1-ethanesulfonic acid (Hepes), Brij-35 and dithiothreitol (DTT) were purchased from Sigma-Aldrich, Munich, Germany. Tris(hydroxymethyl)-aminomethane (Tris), magnesium chloride, NaOH, 1M HCl and EDTA were obtained from Merck Biosciences, Darmstadt, Germany. “Complete” protease inhibitor was from Roche Diagnostics, Mannheim, Germany.
# Test compounds were diluted to the appropriate concentrations in buffer 1 (25 mM Tris-HCl, pH 7.4, 5 mM MgCl2, 2 mM DTT, 0.02% (w/v) BSA and 3% DMSO). The ROCK II enzyme was diluted to a concentration of 100 ng/ml in buffer 2 (25 mM Tris-HCl, pH 7.4, 5 mM MgCl2, 2 mM DTT and 0.02% (w/v) BSA). The peptide substrate and ATP were diluted to concentrations of 3 μM and 120 μM, respectively, in the buffer 2. Two μl of the compound solution were mixed with 2 μl of the diluted enzyme in a 384-well small volume microtiter plate (Greiner, Bio-One, Frickenhausen, Germany), and the kinase reaction was initiated by addition of 2 μl of the solution containing peptide substrate and ATP. After 60 min incubation at 32° C., the reaction was stopped by addition of 20 μl of a solution containing 100 mM Hepes-NaOH, pH 7.4, 0.015% (v/v) Brij-35, 45 mM EDTA and 0.227% chip coating reagent 1 (Caliper Lifescience Inc, Hopkinton, Mass.). Phosphorylation of the substrate peptide was then detected on a Caliper 3000 instrument essentially as described by Pommereau et al (J. Biomol. Screening 9(5), 409-416, 2004). Separation conditions were as follows: Pressure −1.3 psi, upstream voltage −1562 V, downstream voltage −500 V, sample sip time 200 ms. Positive controls (buffer 1 instead of compound) and negative controls (buffer 1 instead of compound and buffer 2 instead of ROCK II) were run in parallel on each plate.
# The following products/compounds were tested in said assay by using the respective form (salt or free base) obtained as in the examples described above and the following activities were measured.
# T1 sequence (O75116 11-552): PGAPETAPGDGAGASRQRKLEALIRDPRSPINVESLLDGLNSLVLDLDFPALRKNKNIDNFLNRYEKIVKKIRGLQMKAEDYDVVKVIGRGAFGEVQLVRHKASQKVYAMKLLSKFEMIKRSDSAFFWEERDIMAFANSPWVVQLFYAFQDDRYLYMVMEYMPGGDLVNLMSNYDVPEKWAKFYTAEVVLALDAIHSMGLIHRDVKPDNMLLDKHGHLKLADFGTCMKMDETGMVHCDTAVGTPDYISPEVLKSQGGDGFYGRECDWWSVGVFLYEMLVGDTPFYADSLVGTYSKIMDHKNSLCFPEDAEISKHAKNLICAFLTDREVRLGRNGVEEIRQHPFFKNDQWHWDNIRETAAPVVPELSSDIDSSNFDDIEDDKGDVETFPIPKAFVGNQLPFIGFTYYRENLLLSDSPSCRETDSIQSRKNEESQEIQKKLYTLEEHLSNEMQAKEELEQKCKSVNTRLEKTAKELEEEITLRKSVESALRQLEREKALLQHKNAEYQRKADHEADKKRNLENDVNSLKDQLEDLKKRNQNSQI
row,SMILES,IC50 [nM]
1,"NCC(=O)N1CCC(Oc2ccc3c(=O)[nH]ccc3c2)CC1 [Example 24, 6-[1-(2-Amino-acetyl)-piperidin-4-yloxy]-2H-isoquinolin-1-one]",≤ 1000
2,"CCCNC(=O)CN1CCC(Oc2cc3cc[nH]c(=O)c3cc2Cl)CC1 [Example 46, 2-[4-(7-Chloro-1-oxo-1,2-dihydro-isoquinolin-6-yloxy)-piperidin-1-yl]-N-propyl-acetamide]",≤ 1000
3,"O=c1[nH]ccc2cc(OC3CCCNCC3)c(Cl)cc12 (stereo not drawn) [Example 55, 6-(Azepan-4-yloxy)-7-chloro-2H-isoquinolin-1-one]",≤ 1000
4,"O=c1[nH]ccc2cc(OC3CNC3)c(Cl)cc12 [Example 58, 6-(Azetidin-3-yloxy)-7-chloro-2H-isoquinolin-1-one]",≤ 1000
5,"O=c1[nH]ccc2cc(O[C@@H]3CCN(Cc4ccccc4)C3)c(Cl)cc12 [Example 66, 6-((R)-1-Benzyl-pyrrolidin-3-yloxy)-7-chloro-2H-isoquinolin-1-one]",≤ 1000
6,"O=c1[nH]ccc2cc(O[C@H]3CCN(Cc4ccccc4)C3)c(Cl)cc12 [Example 67, 6-((S)-1-Benzyl-pyrrolidin-3-yloxy)-7-chloro-2H-isoquinolin-1-one]",1000 to 10000
7,"Cc1cc2c(=O)[nH]ccc2cc1OC1CCCNCC1 (stereo not drawn) [Example 68, 6-(Azepan-4-yloxy)-7-methyl-2H-isoquinolin-1-one]",≤ 1000
8,"Cc1cc2c(=O)[nH]ccc2cc1OC[C@@H]1CCNC1 [Example 69, 7-Methyl-6-((R)-1-pyrrolidin-3-ylmethoxy)-2H-isoquinolin-1-one]",≤ 1000
9,"Cc1cc2c(=O)[nH]ccc2cc1O[C@H]1CCNC1 [Example 70, 7-Methyl-6-((S)-pyrrolidin-3-yloxy)-2H-isoquinolin-1-one]",≤ 1000
10,"Cc1c[nH]c(=O)c2ccc(OC3CCN(C[C@@H](N)CO)CC3)c(F)c12 [Example 75, 6-[1-((R)-2-Amino-3-hydroxy-propyl)-piperidin-4-yloxy]-5-fluoro-4-methyl-2H-isoquinolin-1-one]",1000 to 10000

# Other lines, results leading:
row,IC50 [nM],SMILES
1,≤ 1000,"C[C@@H](N)C(=O)N1CCC(Oc2cc3cc[nH]c(=O)c3cc2Cl)CC1 [Example 11, 6-[1-(2-Amino-propionyl)-piperidin-4-yloxy]-7-chloro-2H-isoquinolin-1-one]"
2,≤ 1000,"O=C([C@@H]1CCCN1)N1CCC(Oc2cc3cc[nH]c(=O)c3cc2Cl)CC1 [Example 15, 7-Chloro-6-[1-((S)-pyrrolidine-2-carbonyl)-piperidin-4-yloxy]-2H-isoquinolin-1-one]"
3,≤ 1000,"CN(C)CC(=O)N1CCC(Oc2cc3cc[nH]c(=O)c3cc2Cl)CC1 [Example 16, 7-Chloro-6-[1-(2-dimethylamino-acetyl)-piperidin-4-yloxy]-2H-isoquinolin-1-one]"
4,1000 to 10000,"NC1(C(=O)N2CCC(Oc3cc4cc[nH]c(=O)c4cc3Cl)CC2)CC1 [Example 19, 6-[1-(1-Amino-cyclopropanecarbonyl)-piperidin-4-yloxy]-7-chloro-2H-isoquinolin-1-one]"
5,≤ 1000,"N[C@@H](Cc1ccc(Cl)cc1)C(=O)N1CCC(Oc2cc3cc[nH]c(=O)c3cc2Cl)CC1 [Example 22, 6-{1-[(S)-2-Amino-3-(4-chloro-phenyl)-propionyl]-piperidin-4-yloxy}-7-chloro-2H-isoquinolin-1-one]"
